Source: ChEMBL document CHEMBL2346648, “A series of thiazole derivatives bearing thiazolidin-4-one as non-competitive ADAMTS-5 (aggrecanase-2) inhibitors” (Bioorg Med Chem Lett, 2013)

How the values were obtained:
[1] = molecular target: T1, A disintegrin and metalloproteinase with thrombospondin motifs 5 (Bos taurus) (UniProt Q9TT92); assay: Ex vivo inhibition of ADAMTS-5-mediated aggrecan degradation in IL-1-stimulated bovine cartilage explant at 30 uM
T1 sequence (whole entry): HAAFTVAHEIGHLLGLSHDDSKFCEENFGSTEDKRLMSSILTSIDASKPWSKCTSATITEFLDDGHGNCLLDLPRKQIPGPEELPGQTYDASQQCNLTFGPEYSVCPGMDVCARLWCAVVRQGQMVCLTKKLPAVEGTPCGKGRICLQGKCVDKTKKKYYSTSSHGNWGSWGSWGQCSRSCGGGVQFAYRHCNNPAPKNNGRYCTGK

[2] = molecular target: T2, A disintegrin and metalloproteinase with thrombospondin motifs 4 (Homo sapiens, UniProt O75173); assay: Inhibition of ADAMTS-4 (unknown origin)
T2 sequence (O75173 whole entry): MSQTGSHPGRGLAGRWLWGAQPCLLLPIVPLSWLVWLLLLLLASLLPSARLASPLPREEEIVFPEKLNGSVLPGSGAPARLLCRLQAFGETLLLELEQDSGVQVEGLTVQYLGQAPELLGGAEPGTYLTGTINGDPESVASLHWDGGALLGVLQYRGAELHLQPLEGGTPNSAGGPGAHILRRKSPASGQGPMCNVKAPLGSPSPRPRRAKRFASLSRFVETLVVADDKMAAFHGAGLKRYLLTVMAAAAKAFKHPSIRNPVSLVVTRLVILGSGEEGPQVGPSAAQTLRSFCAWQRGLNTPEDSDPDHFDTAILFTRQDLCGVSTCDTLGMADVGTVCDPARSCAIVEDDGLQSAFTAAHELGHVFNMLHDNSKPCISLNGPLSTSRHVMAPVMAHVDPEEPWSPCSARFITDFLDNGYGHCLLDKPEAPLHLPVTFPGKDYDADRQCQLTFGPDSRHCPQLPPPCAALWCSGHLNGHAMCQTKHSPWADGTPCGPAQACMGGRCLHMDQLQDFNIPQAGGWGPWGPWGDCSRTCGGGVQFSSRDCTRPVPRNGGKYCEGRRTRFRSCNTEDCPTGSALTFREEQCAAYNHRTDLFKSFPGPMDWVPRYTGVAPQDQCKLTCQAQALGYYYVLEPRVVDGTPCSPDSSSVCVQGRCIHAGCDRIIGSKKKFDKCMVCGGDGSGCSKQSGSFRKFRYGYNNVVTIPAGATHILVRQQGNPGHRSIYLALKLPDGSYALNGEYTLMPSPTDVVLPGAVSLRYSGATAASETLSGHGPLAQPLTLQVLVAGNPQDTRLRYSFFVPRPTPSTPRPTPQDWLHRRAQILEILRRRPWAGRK

[3] = molecular target: T3, A disintegrin and metalloproteinase with thrombospondin motifs 5 (Homo sapiens, UniProt Q9UNA0); assay: Inhibition of ADAMTS-5 (unknown origin)
T3 sequence (Q9UNA0 whole entry): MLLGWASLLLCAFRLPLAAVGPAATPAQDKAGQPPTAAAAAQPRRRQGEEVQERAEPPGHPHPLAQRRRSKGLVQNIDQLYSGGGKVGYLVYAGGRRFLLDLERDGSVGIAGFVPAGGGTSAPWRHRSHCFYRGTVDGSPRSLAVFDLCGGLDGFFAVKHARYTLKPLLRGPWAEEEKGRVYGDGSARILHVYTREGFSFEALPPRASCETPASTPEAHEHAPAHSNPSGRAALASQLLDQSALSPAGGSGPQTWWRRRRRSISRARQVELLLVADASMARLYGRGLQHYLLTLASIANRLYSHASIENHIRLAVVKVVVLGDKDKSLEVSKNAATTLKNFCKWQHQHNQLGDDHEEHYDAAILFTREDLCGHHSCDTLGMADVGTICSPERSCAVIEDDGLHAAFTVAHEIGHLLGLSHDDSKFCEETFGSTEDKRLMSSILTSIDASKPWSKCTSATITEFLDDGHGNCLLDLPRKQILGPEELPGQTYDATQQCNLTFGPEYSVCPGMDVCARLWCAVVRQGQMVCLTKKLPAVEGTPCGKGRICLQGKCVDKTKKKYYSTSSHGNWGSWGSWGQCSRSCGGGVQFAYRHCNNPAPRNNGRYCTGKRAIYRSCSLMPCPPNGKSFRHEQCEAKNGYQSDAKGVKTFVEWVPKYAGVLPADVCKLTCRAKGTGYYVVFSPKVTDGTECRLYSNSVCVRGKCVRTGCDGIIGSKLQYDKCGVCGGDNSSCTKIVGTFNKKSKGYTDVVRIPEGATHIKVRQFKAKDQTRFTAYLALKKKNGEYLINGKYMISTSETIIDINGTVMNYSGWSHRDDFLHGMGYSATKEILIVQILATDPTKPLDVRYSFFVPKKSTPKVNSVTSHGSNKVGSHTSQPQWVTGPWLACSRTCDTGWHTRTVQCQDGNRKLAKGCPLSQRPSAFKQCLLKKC

[4] = molecular target: T4, A disintegrin and metalloproteinase with thrombospondin motifs 4 (Bos taurus) (UniProt Q9TT93); conditions: 30 uM
T4 sequence (whole entry): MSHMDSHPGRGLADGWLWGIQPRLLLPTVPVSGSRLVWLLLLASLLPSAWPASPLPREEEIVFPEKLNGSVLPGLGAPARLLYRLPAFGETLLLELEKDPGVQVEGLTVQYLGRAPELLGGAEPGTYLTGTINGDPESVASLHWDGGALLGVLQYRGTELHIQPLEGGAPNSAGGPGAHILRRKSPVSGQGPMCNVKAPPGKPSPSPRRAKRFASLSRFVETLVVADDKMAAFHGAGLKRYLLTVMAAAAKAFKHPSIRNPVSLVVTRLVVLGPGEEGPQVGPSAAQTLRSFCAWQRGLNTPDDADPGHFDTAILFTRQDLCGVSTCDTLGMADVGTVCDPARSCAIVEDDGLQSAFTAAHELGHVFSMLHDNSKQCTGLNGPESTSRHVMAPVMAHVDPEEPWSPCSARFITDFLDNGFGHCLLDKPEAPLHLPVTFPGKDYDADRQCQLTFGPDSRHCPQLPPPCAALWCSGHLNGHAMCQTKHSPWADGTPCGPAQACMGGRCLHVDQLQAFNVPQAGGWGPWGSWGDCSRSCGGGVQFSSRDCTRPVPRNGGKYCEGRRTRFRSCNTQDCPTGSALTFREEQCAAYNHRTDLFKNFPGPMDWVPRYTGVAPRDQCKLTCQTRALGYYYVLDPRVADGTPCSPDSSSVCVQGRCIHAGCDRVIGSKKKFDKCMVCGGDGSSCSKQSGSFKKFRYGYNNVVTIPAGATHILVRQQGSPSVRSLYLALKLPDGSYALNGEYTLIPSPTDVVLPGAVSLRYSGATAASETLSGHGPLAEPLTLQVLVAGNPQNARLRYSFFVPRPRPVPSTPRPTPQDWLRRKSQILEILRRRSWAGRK
Description: Ex vivo inhibition of ADAMTS-4-mediated aggrecan degradation in IL-1-stimulated bovine cartilage explant at 30 uM

- inhibition [1]: 91%
- IC50 [2]: 1000 nM
- IC50 [3]: 420 nM
- inhibition [4]: 91%
SMILES: O=C(NO)C1(S(=O)(=O)c2ccc(Oc3ccc(Cl)cc3)cc2)CCN(Cc2ccccc2)CC1
